Assay results reported in US9790541B2, “Methods and compositions for labeling nucleic acids” (President and Fellows of Harvard College, priority 2005, dated 2017).

Legend:
[1] = system: HeLa cells; assay: Staining of EdU-labeled live cells with TMR-propyl-azide, time-lapse fluorescence microscopy; format: cell-based; conditions: 200 nM TMR-propyl-azide, 37° C., FIG. 7
Experimental: Ascorbic acid (from a […] stock in water) was then added to this solution to a final concentration of 50 mM, and the resulting staining solution is mixed thoroughly.
Washes with methanol or ethanol may be performed to obtain low background
To facilitate live microscopic imaging, EdU-labeled cells were plated in coverslip chambers which were mounted on the heated stage (37° C.) of an inverted Nikon TE200)U microscope equipped for wide-field fluorescence microscopy as well as spinning-disk confocal fluorescence microscopy (Yokogama spinning disk confocal head from Perkin-Elmer). […] The cells were imaged by time-lapse fluorescent microscopy (one frame every 15 seconds) to detect the TMR signal accumulating in the nuclei of the EdU-labeled cells.

[2] = system: HeLa cells; assay: Tracing a single sister chromatid: EdU pulse, chase of two cell cycles, Alexa568-azide staining; format: cell-based; conditions: EdU pulse during DNA synthesis, Alexa568-azide stain
Excerpt: The purpose of the experiment reported herein was to label only one DNA molecule of the two that form a chromosome. That was accomplished by pulsing HeLa cells with EdU during DNA synthesis followed by a chase lasting two cell cycles, as depicted on FIG. 12. […] EdU allowed very nice resolution imaging of chromosomes in cells as shown by FIG. 13.

[3] = system: HeLa cells; assay: Labeling of HeLa cells with EdU, fixed/permeabilized, stained with Xrhodamine-azide; format: cell-based; conditions: 1 μM EdU; cell in anaphase; labeling pulse shorter than DNA replication time
Experimental: Ethynyl-dU (EdU) was used in tissue culture media (DMEM complemented with penicillin, streptomycin, and fetal calf serum (FCS)) ranging from 10 nM to 1 μM depending on the length of the labeling pulse. For example, if cells to be labeled were synchronized in the S phase, 100 nM to 1 μM of EdU was used for 1 to 2 hours. After labeling, the cells were washed 3 or 4 times with PBS and then tissue culture media was added.
Staining Solution: 100 mM Tris pH 8.5 (from 2 M stock in water), 0.5 to 1 mM CuSO4 (from 1 M stock in water), 0.5 to 1 μM fluorophore-azide (from approximately 10-100 mM stock in DMSO), and water (as required) were mixed together. Ascorbic acid (from a […] stock in water) was then added to this solution to a final concentration of 50-100 mM, and the resulting staining solution is mixed thoroughly using a vortex.
Cells can be fixed by any suitable method, e.g., cells can be fixed by aldehyde fixation (formaldehyde or glutaraldehyde), with or without permeabilization. After fixation, the cells were washed in buffer with or without non-ionic detergent (0.2-0.5% Triton X100). Before staining, cells were rinsed with buffer without detergent (PBS or TBS). The cells were then incubated in the presence of the staining solution for at least 30 minutes. Overnight staining is preferably performed in a cold room.

[4] = system: mouse intestine and brain; assay: In vivo labeling with EdU, organ sections stained with Xrhodamine-azide and Hoechst; parameters: species or system mice; conditions: 200 micrograms EdU intraperitoneally, organs harvested three days later
Experimental: BLAB/C mice were injected with 200 micrograms of EdU intraperitoneally. Three days later, organs were harvested, fixed, embedded in paraffin and sectioned. The sections were then de-waxed and stained with Xrhadomine-azide for 5 minutes, stained with Hoechst, washed and then mounted.

C#Cc1cn([C@H]2C[C@H](O)[C@@H](CO)O2)c(=O)[nH]c1=O [EdU, 5-ethynyl-2′ deoxyuracil]
EdU detection over time (DNA staining intensity) [1]: complete within minutes | DNA molecules of a chromosome labeled, first mitosis after labeling [2]: both DNA molecules were labeled | DNA molecules of a chromosome labeled, second mitosis [2]: only one DNA molecule was labeled | DNA labeling by EdU in HeLa cells [3]: only the DNA replicating during the pulse was labeled | EdU-labeled cells in intestine section ([4]; FIG. 8): cells with red nuclei are the cells which incorporated EdU | EdU-labeled cells in brain section ([4]; FIG. 10): sole EdU-labeled cell
